Laboratory results taken from ChEMBL document CHEMBL4414589, “Development of High-Throughput Fluorescent-Based Screens to Accelerate Discovery of P2X Inhibitors from Animal Venoms” (J Nat Prod, 2019).

Columns and labels:
Type in all cases: cell-based
P2X purinoceptor 7 = biological target: T1, P2X purinoceptor 7 (Homo sapiens, UniProt Q99572); test: Antagonist activity at human P2X7R transfected in HEK293 cells assessed as inhibition of ATP-mediated calcium influx measured after 10 mins by YOPRO-1 dye uptake assay
T1 sequence (Q99572 whole entry): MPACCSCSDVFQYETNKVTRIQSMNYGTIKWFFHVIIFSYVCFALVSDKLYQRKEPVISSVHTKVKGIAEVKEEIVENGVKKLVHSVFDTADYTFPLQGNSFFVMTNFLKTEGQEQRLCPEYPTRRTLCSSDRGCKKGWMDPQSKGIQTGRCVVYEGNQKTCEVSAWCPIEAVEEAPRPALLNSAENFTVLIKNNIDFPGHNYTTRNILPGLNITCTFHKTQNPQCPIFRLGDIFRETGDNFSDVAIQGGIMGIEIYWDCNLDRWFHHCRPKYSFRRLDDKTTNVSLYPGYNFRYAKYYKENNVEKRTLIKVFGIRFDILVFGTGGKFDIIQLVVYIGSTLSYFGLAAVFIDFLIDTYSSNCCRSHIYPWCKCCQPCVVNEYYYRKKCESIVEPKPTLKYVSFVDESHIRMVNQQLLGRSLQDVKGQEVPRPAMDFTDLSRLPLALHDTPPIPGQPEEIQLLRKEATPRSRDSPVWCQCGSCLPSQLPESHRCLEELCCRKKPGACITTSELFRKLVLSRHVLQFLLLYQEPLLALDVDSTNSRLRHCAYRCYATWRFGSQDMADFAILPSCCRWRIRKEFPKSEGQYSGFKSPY

P2X purinoceptor 4 [1] = biological target: T2, P2X purinoceptor 4 (Homo sapiens, UniProt Q99571); test: Antagonist activity at human P2X4R transfected in HEK293 cells assessed as inhibition of ATP-mediated calcium influx measured after 10 mins by YOPRO-1 dye uptake assay
T2 sequence (Q99571 whole entry): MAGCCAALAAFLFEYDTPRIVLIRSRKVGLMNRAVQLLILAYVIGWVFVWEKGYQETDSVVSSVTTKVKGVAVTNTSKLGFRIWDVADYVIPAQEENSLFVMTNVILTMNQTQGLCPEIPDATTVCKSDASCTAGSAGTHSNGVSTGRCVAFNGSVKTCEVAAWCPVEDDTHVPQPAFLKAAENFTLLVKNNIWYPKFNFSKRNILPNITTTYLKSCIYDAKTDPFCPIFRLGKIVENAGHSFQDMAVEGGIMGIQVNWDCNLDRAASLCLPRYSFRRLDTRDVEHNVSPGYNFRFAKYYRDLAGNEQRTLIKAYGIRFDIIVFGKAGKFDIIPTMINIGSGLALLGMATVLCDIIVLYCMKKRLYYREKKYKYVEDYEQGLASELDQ

P2X purinoceptor 4 [2] = biological target: T2, P2X purinoceptor 4; test: Antagonist activity at human P2X4R transfected in 1321N1 cells assessed as inhibition of ATP-mediated calcium influx measured after 10 mins by Fura-2AM assay

| IC50 (P2X purinoceptor 4 [1]) | IC50 (P2X purinoceptor 4 [2]) | SMILES | IC50 (P2X purinoceptor 7) |
| --- | --- | --- | --- |
|  |  | CC(C)c1cc(Br)c(NC(=O)Nc2cccnc2)c(Br)c1 | Not Active |
|  |  | Cc1ccc(S(=O)(=O)N2c3ccccc3Oc3ccccc32)cc1 | Not Active |
|  |  | O=C1CN=C(c2cccc(Br)c2)c2oc3ccccc3c2N1 | Not Active |
| Not Active | Not Active | O=C(CC12CC3CC(CC(C3)C1)C2)Nc1cccc2nc(NCCNCCO)ccc12 |  |
